Several values for one entry are separate records, joined by “and”; a condition that tells them apart may be missing. Equal entries are not always repeated. Inconclusive results and toxic doses are left out.
System: CD2F1 mice, L1210 leukemia ip, survival T/C
Test: NCI In Vivo Anticancer Drug Screen. Data for tumor model L1210 Leukemia (intraperitoneal) in CD2F1 (CDF1) mice
Settings: endpoint: mean survival time, higher = longer survival
Outline: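 Vehicle-treated tumor-bearing mice served as controls (C) for compound-treated mice (T). Reported figure is T divided by C.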

[1] = dose: 200.0 mg/kg/injection, schedule: Q01DX009 (ip), vehicle: saline with Tween-80
[2] = dose: 400.0 mg/kg/injection, schedule: Q01DX009 (ip), vehicle: saline with Tween-80
[3] = dose: 100.0 mg/kg/injection, schedule: Q01DX009 (ip), vehicle: saline with Tween-80
[4] = dose: 100.0 mg/kg/injection, schedule: Q04DX003 (ip), vehicle: saline with Tween-80
[5] = dose: 200.0 mg/kg/injection, schedule: Q04DX003 (ip), vehicle: saline with Tween-80
[6] = dose: 400.0 mg/kg/injection, schedule: Q04DX003 (ip), vehicle: saline with Tween-80
[7] = dose: 50.0 mg/kg/injection, schedule: Q01DX009 (ip), vehicle: Klucel (hydroxypropylcellulose) (HPC)
[8] = dose: 100.0 mg/kg/injection, schedule: Q01DX009 (ip), vehicle: Klucel (hydroxypropylcellulose) (HPC)

Compound: O=C(CCBr)NCNC(=O)CCBr
- T/C [1]: 152 % of control
- T/C [2]: 101 % of control

Compound: COc1cc(/C=N/Nc2ccc([N+](=O)[O-])cc2)cc(OC)c1OC
- T/C [3]: 97 % of control
- T/C [1]: 94 % of control
- T/C [2]: 98 % of control

Compound: O=C(NCCCl)Nc1ncn[nH]1
- T/C [4]: 95 % of control
- T/C [5]: 98 % of control
- T/C [6]: 96 % of control

Compound: O=S(=O)(OC1CCCCC1Cl)c1ccc(Br)cc1 (configuration not stated)
- T/C [4]: 102 % of control
- T/C [5]: 94 % of control
- T/C [6]: 94 % of control

Compound: CCOC(NCc1ccc(OC)c(OC)c1)OCC
- T/C (dose: 100.0 mg/kg/injection, schedule: Q01DX001 (ip), vehicle: saline): 98 % of control
- T/C (dose: 200.0 mg/kg/injection, schedule: Q01DX001 (ip), vehicle: saline): 98 % of control

Compound: O=[N+]([O-])c1ccc(-c2ccccc2)c([As](=O)(O)O)c1
- T/C (dose: 6.25 mg/kg/injection, schedule: Q04DX002 (ip), vehicle: saline with Tween-80): 124 % of control
- T/C (dose: 12.5 mg/kg/injection, schedule: Q04DX002 (ip), vehicle: saline with Tween-80): 116 % of control
- T/C (dose: 25.0 mg/kg/injection, schedule: Q04DX002 (ip), vehicle: saline with Tween-80): 104 % of control

Compound: CSc1ccc(N=C=C(c2ccccc2)c2ccccc2)cc1
- T/C (dose: 6.25 mg/kg/injection, schedule: Q01DX009 (ip), vehicle: saline with Tween-80): 96 % of control
- T/C (dose: 12.5 mg/kg/injection, schedule: Q01DX009 (ip), vehicle: saline with Tween-80): 94 % of control
- T/C (dose: 25.0 mg/kg/injection, schedule: Q01DX009 (ip), vehicle: saline with Tween-80): 94 % of control
- T/C [4]: 93 % of control
- T/C [5]: 95 % of control
- T/C [6]: 97 % of control

Compound: COc1ccc(N=NN(C)C(=O)c2ccccc2)cc1
- T/C [7]: 107 % of control
- T/C [8]: 117 % of control
- T/C (dose: 400.0 mg/kg/injection, schedule: Q01DX009 (ip), vehicle: Klucel (hydroxypropylcellulose) (HPC)): 161 % of control

Compound: c1ccc2c(c1)Nc1ccncc1S2
- T/C [4]: 94 % of control
- T/C [5]: 96 % of control
- T/C [6]: 112 % of control

Compound: CCc1c(N=O)c(-c2ccccc2)n(O)[n+]1[O-]
- T/C [7]: 104 % of control
- T/C [8]: 101 % of control
- T/C (dose: 200.0 mg/kg/injection, schedule: Q01DX009 (ip), vehicle: Klucel (hydroxypropylcellulose) (HPC)): 95 % of control

Compound: C=CCN1/C(=C/C=C\c2sc3ccccc3[n+]2CC=C)Sc2ccccc21
- T/C (dose: 2.0 mg/kg/injection, schedule: Q04DX003 (ip), vehicle: saline): 110 % of control
- T/C (dose: 4.0 mg/kg/injection, schedule: Q04DX003 (ip), vehicle: saline): 115 % of control

Compound: OC(C/C(=N\Nc1ccccc1)c1ccc(F)cc1)(C(F)(F)F)C(F)(F)F
- T/C [4]: 100 % of control
- T/C [5]: 98 % of control
- T/C [6]: 96 % of control

Compound: CCCCc1ccc(N/C(N)=N/c2nc(C)cc(=O)[nH]2)cc1
- T/C [4]: 98 % of control
- T/C [5]: 98 % of control
- T/C [6]: 92 % of control

Compound: C(#CC[P+](c1ccccc1)(c1ccccc1)c1ccccc1)C[P+](c1ccccc1)(c1ccccc1)c1ccccc1
- T/C (dose: 0.78 mg/kg/injection, schedule: Q01DX009 (ip), vehicle: Klucel (hydroxypropylcellulose) (HPC)): 92 % of control
- T/C (dose: 1.56 mg/kg/injection, schedule: Q01DX009 (ip), vehicle: Klucel (hydroxypropylcellulose) (HPC)): 92 % of control
- T/C (dose: 3.12 mg/kg/injection, schedule: Q01DX009 (ip), vehicle: Klucel (hydroxypropylcellulose) (HPC)): 90 % of control
- T/C (dose: 6.25 mg/kg/injection, schedule: Q01DX009 (ip), vehicle: Klucel (hydroxypropylcellulose) (HPC)): 101 % of control
- T/C (dose: 12.5 mg/kg/injection, schedule: Q01DX009 (ip), vehicle: Klucel (hydroxypropylcellulose) (HPC)): 93 % of control and 107 % of control

Compound: O=C1c2cc(Cl)ccc2-c2c(Cl)cc(Cl)cc21
- T/C (dose: 50.0 mg/kg/injection, schedule: Q01DX009 (ip), vehicle: saline with Tween-80): 92 % of control
- T/C [3]: 101 % of control
- T/C [1]: 89 % of control
